Key:
[1] = test system: Tyrosine-protein kinase ABL1 (Homo sapiens), P00519 [T315I]; assay: Inhibition of human truncated ABL T315I mutant expressed in baculovirus assessed as substrate phosphorylation using fluorescence-labelled peptides as substrate at 0.06 uM after 90 mins by microfluidic peptide phosphorylation assay
[2] = target: Platelet-derived growth factor receptor alpha (Homo sapiens) (UniProt P16234); assay: Inhibition of human PDGFR alpha catalytic domain expressed in baculovirus assessed as substrate phosphorylation using fluorescence-labelled peptides as substrate at 0.06 uM after 90 mins by microfluidic peptide phosphorylation assay
[3] = target: Vascular endothelial growth factor receptor 2 (Homo sapiens) (UniProt P35968); assay: Inhibition of human KDR cytoplasmic domain expressed in baculovirus assessed as substrate phosphorylation using fluorescence-labelled peptides as substrate at 0.2 uM after 90 mins by microfluidic peptide phosphorylation assay
[4] = target: Epidermal growth factor receptor (Homo sapiens) (UniProt P00533); assay: Inhibition of human EGFR catalytic domain expressed in baculovirus assessed as substrate phosphorylation using fluorescence-labelled peptides as substrate at 0.2 uM after 90 mins by microfluidic peptide phosphorylation assay
[5] = target: MAP kinase p38 (Homo sapiens) (UniProt O15264+Q15759+Q16539+P53778); assay: Inhibition of human full length p38 beta2 expressed in Escherichia coli cell assessed as substrate phosphorylation using fluorescence-labelled peptides as substrate at 0.2 uM after 90 mins by microfluidic peptide phosphorylation assay
[6] = target: Cyclin-dependent kinase 2 (Homo sapiens) (UniProt P24941); assay: Inhibition of human full length CDK2 expressed in baculovirus assessed as substrate phosphorylation using fluorescence-labelled peptides as substrate at 420 uM after 90 mins by microfluidic peptide phosphorylation assay
[7] = target: Ribosomal protein S6 kinase alpha-5 (Homo sapiens) (UniProt O75582); assay: Inhibition of human full length MSK1 expressed in baculovirus assessed as substrate phosphorylation using fluorescence-labelled peptides as substrate at 95 uM after 90 mins by microfluidic peptide phosphorylation assay
[8] = target: T1, Calcium/calmodulin-dependent protein kinase type IV (Homo sapiens) (UniProt Q16566); assay: Inhibition of human full length CAMK4 expressed in baculovirus assessed as substrate phosphorylation using fluorescence-labelled peptides as substrate at 95 uM after 90 mins by microfluidic peptide phosphorylation assay
T1 sequence (whole entry): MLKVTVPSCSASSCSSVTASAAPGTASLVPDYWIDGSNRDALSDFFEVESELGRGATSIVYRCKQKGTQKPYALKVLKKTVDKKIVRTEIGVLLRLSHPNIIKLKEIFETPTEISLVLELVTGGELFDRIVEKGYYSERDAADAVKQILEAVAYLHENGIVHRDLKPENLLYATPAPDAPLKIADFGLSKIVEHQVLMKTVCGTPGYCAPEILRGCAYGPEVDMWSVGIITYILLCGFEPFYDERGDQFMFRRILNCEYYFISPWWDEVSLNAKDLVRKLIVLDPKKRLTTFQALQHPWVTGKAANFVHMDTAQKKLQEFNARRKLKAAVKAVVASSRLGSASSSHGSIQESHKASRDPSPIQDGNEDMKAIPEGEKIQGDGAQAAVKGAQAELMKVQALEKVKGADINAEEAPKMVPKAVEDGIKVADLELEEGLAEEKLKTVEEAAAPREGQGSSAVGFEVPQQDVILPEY

[9] = target: Calcium/calmodulin-dependent protein kinase type II subunit gamma (Homo sapiens) (UniProt Q13555); assay: Inhibition of human CAMK2 gamma catalytic domain expressed in baculovirus assessed as substrate phosphorylation using fluorescence-labelled peptides as substrate at 9 uM after 90 mins by microfluidic peptide phosphorylation assay
[10] = target: T1, Calcium/calmodulin-dependent protein kinase type IV (Homo sapiens); assay: Inhibition of human full length CAMK4 expressed in baculovirus assessed as substrate phosphorylation using fluorescence-labelled peptides as substrate at 1000 uM after 90 mins by microfluidic peptide phosphorylation assay
[11] = target: Serine/threonine-protein kinase Chk2 (Homo sapiens) (UniProt O96017); assay: Inhibition of human full length CHK2 expressed in baculovirus assessed as substrate phosphorylation using fluorescence-labelled peptides as substrate at 2 uM after 90 mins by microfluidic peptide phosphorylation assay
[12] = target: T2, Serine/threonine-protein kinase D3 (Homo sapiens) (UniProt O94806); assay: Inhibition of human full length PKD3 expressed in baculovirus assessed as substrate phosphorylation using fluorescence-labelled peptides as substrate at 2 uM after 90 mins by microfluidic peptide phosphorylation assay
T2 sequence (whole entry): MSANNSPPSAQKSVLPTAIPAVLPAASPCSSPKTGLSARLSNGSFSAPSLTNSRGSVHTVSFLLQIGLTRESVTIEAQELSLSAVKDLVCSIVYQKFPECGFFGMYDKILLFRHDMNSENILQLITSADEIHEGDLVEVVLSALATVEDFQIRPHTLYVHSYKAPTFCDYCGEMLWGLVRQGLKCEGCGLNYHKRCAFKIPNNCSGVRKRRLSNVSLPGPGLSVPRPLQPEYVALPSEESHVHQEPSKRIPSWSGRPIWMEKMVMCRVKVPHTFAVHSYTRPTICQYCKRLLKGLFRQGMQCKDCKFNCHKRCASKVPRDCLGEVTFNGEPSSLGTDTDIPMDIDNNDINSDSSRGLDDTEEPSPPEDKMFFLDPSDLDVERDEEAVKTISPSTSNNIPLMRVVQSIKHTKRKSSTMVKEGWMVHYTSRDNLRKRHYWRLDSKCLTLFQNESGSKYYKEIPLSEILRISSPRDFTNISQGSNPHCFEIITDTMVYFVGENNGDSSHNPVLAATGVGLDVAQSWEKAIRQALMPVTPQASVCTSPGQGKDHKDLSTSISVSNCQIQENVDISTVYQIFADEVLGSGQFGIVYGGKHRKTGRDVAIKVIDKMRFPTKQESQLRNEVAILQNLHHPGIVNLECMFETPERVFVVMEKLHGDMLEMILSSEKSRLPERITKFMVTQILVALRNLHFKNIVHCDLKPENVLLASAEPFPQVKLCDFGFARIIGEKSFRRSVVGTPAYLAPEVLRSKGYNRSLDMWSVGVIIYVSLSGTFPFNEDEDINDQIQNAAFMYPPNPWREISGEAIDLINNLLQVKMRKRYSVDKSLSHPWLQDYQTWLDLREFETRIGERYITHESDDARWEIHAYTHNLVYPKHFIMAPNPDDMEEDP

[13] = target: Mitogen-activated protein kinase kinase kinase kinase 4 (Homo sapiens) (UniProt O95819); assay: Inhibition of human HGK catalytic domain expressed in baculovirus assessed as substrate phosphorylation using fluorescence-labelled peptides as substrate at 2 uM after 90 mins by microfluidic peptide phosphorylation assay
[14] = target: Serine/threonine-protein kinase MARK1 (Homo sapiens) (UniProt Q9P0L2); assay: Inhibition of human full length MARK1 expressed in baculovirus assessed as substrate phosphorylation using fluorescence-labelled peptides as substrate at […] after 90 mins by microfluidic peptide phosphorylation assay
[15] = target: RAC-alpha serine/threonine-protein kinase (Homo sapiens) (UniProt P31749); assay: Inhibition of human AKT1 catalytic domain expressed in baculovirus assessed as substrate phosphorylation using fluorescence-labelled peptides as substrate at 8 uM after 90 mins by microfluidic peptide phosphorylation assay
Sequence of RAC-alpha serine/threonine-protein kinase (Homo sapiens) (P31749 whole entry, the tested form may be a part): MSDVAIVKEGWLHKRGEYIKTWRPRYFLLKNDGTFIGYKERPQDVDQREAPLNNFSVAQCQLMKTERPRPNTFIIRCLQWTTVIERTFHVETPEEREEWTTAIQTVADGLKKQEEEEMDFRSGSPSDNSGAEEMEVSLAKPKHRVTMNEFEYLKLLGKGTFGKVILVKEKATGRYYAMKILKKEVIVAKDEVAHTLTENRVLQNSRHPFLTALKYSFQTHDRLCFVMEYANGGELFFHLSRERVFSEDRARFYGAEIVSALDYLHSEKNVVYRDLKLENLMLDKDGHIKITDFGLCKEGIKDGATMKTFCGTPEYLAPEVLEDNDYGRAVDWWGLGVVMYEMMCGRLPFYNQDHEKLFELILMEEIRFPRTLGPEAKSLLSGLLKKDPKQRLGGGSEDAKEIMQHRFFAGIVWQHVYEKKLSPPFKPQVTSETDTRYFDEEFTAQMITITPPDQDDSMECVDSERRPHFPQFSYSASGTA

Sequence of Serine/threonine-protein kinase MARK1 (Homo sapiens) (Q9P0L2 whole entry, looked up, the tested form may be a part): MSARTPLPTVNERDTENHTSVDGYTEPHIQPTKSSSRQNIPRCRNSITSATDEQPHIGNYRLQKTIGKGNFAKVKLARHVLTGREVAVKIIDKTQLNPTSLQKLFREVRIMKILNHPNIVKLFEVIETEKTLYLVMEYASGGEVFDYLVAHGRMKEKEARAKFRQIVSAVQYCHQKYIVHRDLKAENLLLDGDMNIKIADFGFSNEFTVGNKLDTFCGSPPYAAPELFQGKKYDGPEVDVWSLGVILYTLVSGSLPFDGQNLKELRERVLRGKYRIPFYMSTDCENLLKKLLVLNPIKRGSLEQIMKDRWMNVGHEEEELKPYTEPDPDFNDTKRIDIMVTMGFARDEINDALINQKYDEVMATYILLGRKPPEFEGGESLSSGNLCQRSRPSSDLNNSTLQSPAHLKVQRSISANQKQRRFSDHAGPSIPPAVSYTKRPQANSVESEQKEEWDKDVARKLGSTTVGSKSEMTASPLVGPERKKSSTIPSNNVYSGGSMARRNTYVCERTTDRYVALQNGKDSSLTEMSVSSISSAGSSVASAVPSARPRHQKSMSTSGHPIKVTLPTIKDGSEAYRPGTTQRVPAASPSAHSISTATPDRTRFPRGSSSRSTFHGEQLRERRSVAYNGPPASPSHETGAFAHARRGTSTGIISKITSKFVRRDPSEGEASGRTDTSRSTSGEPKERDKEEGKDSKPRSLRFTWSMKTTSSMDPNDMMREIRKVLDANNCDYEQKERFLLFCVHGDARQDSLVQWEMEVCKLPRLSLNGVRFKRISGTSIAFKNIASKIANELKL
Sequence of Mitogen-activated protein kinase kinase kinase kinase 4 (Homo sapiens) (O95819 2-1239 limits assumed): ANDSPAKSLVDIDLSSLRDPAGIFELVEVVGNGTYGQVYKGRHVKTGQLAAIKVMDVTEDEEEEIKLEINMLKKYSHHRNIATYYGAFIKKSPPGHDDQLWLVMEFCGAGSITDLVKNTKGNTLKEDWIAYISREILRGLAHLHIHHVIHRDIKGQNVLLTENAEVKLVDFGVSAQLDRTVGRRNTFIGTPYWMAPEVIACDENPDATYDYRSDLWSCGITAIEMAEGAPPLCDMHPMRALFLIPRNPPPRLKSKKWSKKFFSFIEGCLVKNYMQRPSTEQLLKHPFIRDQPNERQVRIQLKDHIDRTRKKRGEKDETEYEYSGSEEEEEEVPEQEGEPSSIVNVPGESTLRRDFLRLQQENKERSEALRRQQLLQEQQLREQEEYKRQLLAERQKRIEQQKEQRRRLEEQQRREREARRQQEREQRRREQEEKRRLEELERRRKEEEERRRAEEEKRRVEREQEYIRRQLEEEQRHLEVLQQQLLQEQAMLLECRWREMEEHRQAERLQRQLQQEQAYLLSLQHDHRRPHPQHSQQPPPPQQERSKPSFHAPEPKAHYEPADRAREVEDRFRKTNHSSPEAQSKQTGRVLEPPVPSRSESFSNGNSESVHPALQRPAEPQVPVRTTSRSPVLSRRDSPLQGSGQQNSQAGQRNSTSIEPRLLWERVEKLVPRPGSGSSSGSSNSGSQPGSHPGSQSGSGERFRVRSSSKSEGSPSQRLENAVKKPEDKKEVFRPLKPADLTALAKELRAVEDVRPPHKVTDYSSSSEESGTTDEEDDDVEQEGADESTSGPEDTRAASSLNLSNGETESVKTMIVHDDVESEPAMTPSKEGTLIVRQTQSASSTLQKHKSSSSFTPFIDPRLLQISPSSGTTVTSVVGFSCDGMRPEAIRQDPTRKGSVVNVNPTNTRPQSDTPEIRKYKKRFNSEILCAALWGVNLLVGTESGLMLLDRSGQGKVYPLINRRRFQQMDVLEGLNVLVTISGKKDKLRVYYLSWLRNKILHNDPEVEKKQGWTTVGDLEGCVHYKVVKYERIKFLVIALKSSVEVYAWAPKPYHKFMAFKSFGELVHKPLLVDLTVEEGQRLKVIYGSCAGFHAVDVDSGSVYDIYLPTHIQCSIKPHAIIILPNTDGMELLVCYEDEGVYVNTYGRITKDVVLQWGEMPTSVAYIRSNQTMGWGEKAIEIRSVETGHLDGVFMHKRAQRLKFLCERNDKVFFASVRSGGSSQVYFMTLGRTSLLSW
Sequence of Ribosomal protein S6 kinase alpha-5 (Homo sapiens) (O75582 whole entry, looked up): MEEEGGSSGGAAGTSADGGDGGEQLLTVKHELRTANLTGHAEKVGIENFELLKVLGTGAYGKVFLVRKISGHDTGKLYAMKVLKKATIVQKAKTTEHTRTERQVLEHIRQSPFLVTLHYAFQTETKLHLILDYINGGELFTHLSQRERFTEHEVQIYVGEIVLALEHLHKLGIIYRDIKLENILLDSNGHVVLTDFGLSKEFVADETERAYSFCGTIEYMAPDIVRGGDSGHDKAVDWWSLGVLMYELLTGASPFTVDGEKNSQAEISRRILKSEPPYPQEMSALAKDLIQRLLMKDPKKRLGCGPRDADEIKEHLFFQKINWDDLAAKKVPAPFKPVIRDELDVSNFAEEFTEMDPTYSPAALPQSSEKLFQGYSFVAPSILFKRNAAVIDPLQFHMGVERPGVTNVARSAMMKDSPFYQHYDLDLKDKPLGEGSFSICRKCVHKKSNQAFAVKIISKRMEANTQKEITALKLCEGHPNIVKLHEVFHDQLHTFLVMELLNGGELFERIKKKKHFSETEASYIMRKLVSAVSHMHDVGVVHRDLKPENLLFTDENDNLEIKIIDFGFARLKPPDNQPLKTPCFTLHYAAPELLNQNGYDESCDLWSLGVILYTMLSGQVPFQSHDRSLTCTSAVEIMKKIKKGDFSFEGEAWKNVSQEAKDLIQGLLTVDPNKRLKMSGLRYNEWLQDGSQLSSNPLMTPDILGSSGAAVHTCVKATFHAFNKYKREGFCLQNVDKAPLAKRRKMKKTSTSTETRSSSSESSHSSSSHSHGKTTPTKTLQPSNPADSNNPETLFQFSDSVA
Sequence of Vascular endothelial growth factor receptor 2 (Homo sapiens) (P35968 whole entry, the tested form may be a part): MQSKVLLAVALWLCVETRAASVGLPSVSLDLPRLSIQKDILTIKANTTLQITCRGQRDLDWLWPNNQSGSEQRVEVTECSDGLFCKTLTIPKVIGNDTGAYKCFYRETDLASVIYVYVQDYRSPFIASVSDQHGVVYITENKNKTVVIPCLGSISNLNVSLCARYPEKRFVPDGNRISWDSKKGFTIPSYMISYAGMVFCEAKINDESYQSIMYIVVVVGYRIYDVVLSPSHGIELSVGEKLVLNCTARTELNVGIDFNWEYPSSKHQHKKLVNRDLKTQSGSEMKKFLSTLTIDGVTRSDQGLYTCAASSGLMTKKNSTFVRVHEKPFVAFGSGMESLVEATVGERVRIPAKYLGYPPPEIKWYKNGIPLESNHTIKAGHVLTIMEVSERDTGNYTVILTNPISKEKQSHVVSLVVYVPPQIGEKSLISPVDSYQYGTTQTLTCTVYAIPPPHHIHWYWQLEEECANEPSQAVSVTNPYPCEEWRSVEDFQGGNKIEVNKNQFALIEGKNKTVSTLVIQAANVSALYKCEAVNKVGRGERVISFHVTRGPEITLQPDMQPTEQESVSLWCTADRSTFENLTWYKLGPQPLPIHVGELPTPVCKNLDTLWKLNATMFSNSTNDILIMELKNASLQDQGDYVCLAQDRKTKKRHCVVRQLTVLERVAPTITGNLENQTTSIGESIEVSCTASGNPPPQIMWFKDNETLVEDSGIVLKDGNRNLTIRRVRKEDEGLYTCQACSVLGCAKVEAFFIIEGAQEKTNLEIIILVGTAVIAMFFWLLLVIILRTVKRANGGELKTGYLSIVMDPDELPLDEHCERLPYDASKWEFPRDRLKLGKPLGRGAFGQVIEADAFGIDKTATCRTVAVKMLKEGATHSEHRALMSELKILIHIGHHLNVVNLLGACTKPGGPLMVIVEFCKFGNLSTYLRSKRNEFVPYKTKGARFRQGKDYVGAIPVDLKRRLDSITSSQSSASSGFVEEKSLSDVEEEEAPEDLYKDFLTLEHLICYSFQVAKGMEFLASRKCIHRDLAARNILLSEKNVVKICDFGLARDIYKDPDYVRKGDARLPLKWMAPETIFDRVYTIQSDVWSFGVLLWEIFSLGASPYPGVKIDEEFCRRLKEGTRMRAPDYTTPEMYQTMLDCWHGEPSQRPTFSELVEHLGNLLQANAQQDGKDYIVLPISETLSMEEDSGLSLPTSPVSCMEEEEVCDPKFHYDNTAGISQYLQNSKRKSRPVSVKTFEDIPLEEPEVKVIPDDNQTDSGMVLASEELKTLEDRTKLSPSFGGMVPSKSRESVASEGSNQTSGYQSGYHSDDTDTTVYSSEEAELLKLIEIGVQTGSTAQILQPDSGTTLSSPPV

NC1(Cc2ccc(Cl)cc2)CCN(c2ncnc3[nH]ccc23)CC1
inhibition [1]: 0% | inhibition [2]: 0%

Clc1ccc(C2(c3ccc(-c4ncnc5[nH]cnc45)cc3)CCNCC2)cc1
inhibition [3]: 9% | inhibition [4]: 2.5% | inhibition [5]: 2.5%

c1nc(N2CCOCC2)c2nc[nH]c2n1
inhibition [6]: 75%

NCCc1ccc(-c2ncnc3[nH]cnc23)cc1
inhibition [7]: 76% | inhibition [8]: 85%

NCC1CN(c2ncnc3[nH]c4cnccc4c23)CCO1 (stereo not given)
inhibition [9]: 24%

c1cnc2[nH]ccc2c1
inhibition [10]: 52%

NC1CCN(c2ncnc3[nH]ccc23)CC1
inhibition [11]: 0% | inhibition [12]: 0% | inhibition [13]: 0%

COC(=O)c1cnc(Nc2cnc(C#N)cn2)cc1NCC1CCNCC1
inhibition [14]: 5%

NCC1CCN(c2ncnc3[nH]ccc23)CC1
inhibition [15]: 96%
